Laboratory results as given in patent publication US12583851B2, “Heteroaryl-substituted pyrazine derivatives as pesticides” (Elanco Animal Health GmbH, priority 2019, dated 2026).

How the values were obtained:
Format in all cases: in vivo
[1] = system: Rhipicephalus (Boophilus) microplus larvae (strain Parkhurst, resistant against synthetic pyrethroids); assay: Rhipicephalus (Boophilus) microplus in-vitro contact test, larval cattle tick; conditions: after 48 hours, read-out: efficacy (larvae dead or moribund); for pest or weed control at 1 µg/cm2, 100 g/ha: 1 μg/cm^2 (=100 g/ha); for pest or weed control at 5 µg/cm2, 500 g/ha: 5 μg/cm^2 (=500 g/ha)
Procedure: Rhipicephalus (Boophilus) microplus—In-Vitro Contact Tests Larval Cattle Tick (Strain Parkhurst, Resistant Against Synthetic Pyrethroids)
9 mg compound is solved in 1 mL acetone and diluted with acetone to the desired concentration. […] the test solution is filled in 25 mL glass test tubes and homogeneously distributed on the inner walls by rotation and tilting on a shaking device (2 h at 30 rpm). With a compound concentration of 900 ppm, an inner surface of 44.7 cm^2 and a homogeneous distribution, a dose of 5 μg/cm^2 is achieved.
After the solvent has evaporated, each test tube is filled with 20-50 cattle tick larvae (Rhipicephalus microplus), closed with a perforated lid and incubated in a horizontal position at 85% relative humidity and 27° C. in an incubator. After 48 hours efficacy is determined. The larvae are patted on the ground of the tubes and negative geotactic behaviour is recorded.
An efficacy of 100% means all larvae are dead or moribund; 0% means no larvae are dead or moribund.

[2] = system: larvae of the banded cucumber beetle (Diabrotica balteata); assay: Diabrotica balteata spray test; conditions: 168 h, after 7 days, read-out: efficacy (seedling growth); for pest or weed control at 32 µg/disc, 100 g/ha: 100 g/ha (=32 μg/well); for pest or weed control at 6.4 µg/disc, 20 g/ha: 20 g/ha (=6.4 μg/well)
Procedure: Diabrotica balteata—Spray Test
Solvent: 78.0 parts by weight of acetone • • 1.5 parts by weight of dimethylformamide
(§1) Emulsifier: alkylarylpolyglycol ether
(§2) To produce a suitable preparation of active compound, 1 part by weight of active compound is mixed with the stated amount of solvent, and the concentrate is diluted with water, containing an emulsifier concentration of 1000 ppm, to the desired concentration. Further test concentrations are prepared by dilution with emulsifier containing water.
Soaked wheat seeds (Triticum aestivum) are placed in a multiple well plate filled with agar and some water and are incubated for 1 day to germinate (5 seeds per well). The germinated wheat seeds are sprayed with a test solution containing the desired concentration of the active ingredient. Afterwards each unit is infected with 10-20 larvae of the banded cucumber beetle (Diabrotica balteata).
After 7 days efficacy in % is determined. 100% means all the seedlings have grown up like in the untreated, uninfected control; 0% means none of the seedlings have grown.

[3] = system: fall armyworm larvae (Spodoptera frugiperda); assay: Spodoptera frugiperda spray test; conditions: 168 h, maize leaf sections, after 7 days
Procedure: Spodoptera fruaiperda—Spray Test
Solvent: 78.0 parts by weight acetone • 1.5 parts by weight dimethylformamide
as §1
as §2, with “solvents” for “solvent,”, “and” for “and the concentrate”
Maize (Zea mays) leaf sections are sprayed with a preparation of the active ingredient of the desired concentration. Once dry, the leaf sections are infested with fall armyworm larvae (Spodoptera frugiperda).
After 7 days mortality in % is determined. 100% means all caterpillars have been killed and 0% means none of the caterpillars have been killed.

## CC(NC(=O)c1cncc(C(C)(C)C)c1)c1nccnc1-c1nccs1 (racemic) [Example I-6, (rac)-5-(tert-Butyl)-N-(1-(3-(thiazol-2-yl)pyrazin-2-yl)ethyl)nicotinamide]
[1]
  pest or weed control at 1 µg/cm2, 100 g/ha: 80%
  pest or weed control at 5 µg/cm2, 500 g/ha: 80%

## CC(NC(=O)c1cc(C(F)(F)F)cc(C(F)(F)F)c1)c1nccnc1-c1ccc(C(=O)N2CCCC2)cn1 (racemic) [Example I-37, (rac)-N-[1-{3-[5-(Pyrrolidine-1-carbonyl)pyridin-2-yl]pyrazin-2-yl}ethyl]-3,5-bis(trifluoromethyl)benzamide]
[1]
  pest or weed control at 1 µg/cm2, 100 g/ha: 100%
  pest or weed control at 5 µg/cm2, 500 g/ha: 100%

## CC(NC(=O)c1cc(Cl)cc(C#N)c1)c1nccnc1-c1ccc(C(F)(F)F)cn1 (racemic) [Example I-40, (rac)-3-Chloro-5-cyano-N-[1-{3-[5-(trifluoromethyl)pyridin-2-yl]pyrazin-2-yl}ethyl]benzamide]
[2]
  pest or weed control at 32 µg/disc, 100 g/ha: 100%

## CC(NC(=O)c1cc(Cl)cc(Br)c1)c1nccnc1-c1ccc(C(F)(F)F)cn1 (racemic) [Example I-43, (rac)-3-Bromo-5-chloro-N-[1-{3-[5-(trifluoromethyl)pyridin-2-yl]pyrazin-2-yl}ethyl]benzamide]
[2]
  pest or weed control at 32 µg/disc, 100 g/ha: 80%

## CC(NC(=O)c1cc(Br)cc(OC(F)(F)F)c1)c1nccnc1-c1ccc(C(F)(F)F)cn1 (racemic) [Example I-44, (rac)-3-Bromo-5-(trifluoromethoxy)-N-[1-{3-[5-(trifluoromethyl)pyridin-2-yl]pyrazin-2-yl}ethyl]benzamide]
[2]
  pest or weed control at 32 µg/disc, 100 g/ha: 100%

## CC(NC(=O)c1cc(C(F)(F)F)cc(C(F)(F)F)c1)c1nccnc1-c1ccc(C(F)(F)F)cn1 (racemic) [Example I-45, (rac)-3,5-Bis(trifluoromethyl)-N-[1-{3-[5-(trifluoromethyl)pyridin-2-yl]pyrazin-2-yl}ethyl]benzamide]
[3]
  mortality at 100 g/ha: 100%

## CC(NC(=O)c1cc(Cl)cc(OC(F)(F)F)c1)c1nccnc1-c1ccc(C(F)(F)F)cn1 (racemic) [Example I-47, (rac)-3-Chloro-5-(trifluoromethoxy)-N-[1-{3-[5-(trifluoromethyl)pyridin-2-yl]pyrazin-2-yl}ethyl]benzamide]
[3]
  mortality at 100 g/ha: 100%

## CC(NC(=O)c1cc(Cl)cc(C#N)c1)c1nccnc1-c1nccs1 (racemic) [Example I-57, (rac)-3-Chloro-5-cyano-N-{1-[3-(1,3-thiazol-2-yl)pyrazin-2-yl]ethyl}benzamide]
[2]
  pest or weed control at 6.4 µg/disc, 20 g/ha: 80%

## CC(NC(=O)c1cc(Cl)cc(OC(F)(F)F)c1)c1nccnc1-c1ncc(C(=O)N2CCOCC2)s1 (racemic) [Example I-60, (rac)-3-Chloro-N-[1-{3-[5-(morpholine-4-carbonyl)-1,3-thiazol-2-yl]pyrazin-2-yl}ethyl]-5-(trifluoromethoxy)benzamide]
[3]
  mortality at 100 g/ha: 83%

## CC(NC(=O)c1cc(C(F)(F)F)cc(C(F)(F)F)c1)c1nccnc1-c1ncc(C(=O)N2CCC[Si](C)(C)C2)s1 (racemic) [Example I-70, (rac)-N-[1-{3-[5-(3,3-Dimethyl-1,3-azasilinane-1-carbonyl)-1,3-thiazol-2-yl]pyrazin-2-yl}ethyl]-3,5-bis(trifluoromethyl)benzamide]
[2]
  pest or weed control at 32 µg/disc, 100 g/ha: 100%

## CC(NC(=O)c1cc(C(F)(F)F)cc(C(F)(F)F)c1)c1nccnc1-c1ncc(C(=O)N2CCCC2)s1 (racemic) [Example I-71, (rac)-N-[1-{3-[5-(Pyrrolidine-1-carbonyl)-1,3-thiazol-2-yl]pyrazin-2-yl}ethyl]-3,5-bis(trifluoromethyl)benzamide]
[2]
  pest or weed control at 6.4 µg/disc, 20 g/ha: 100%
  pest or weed control at 32 µg/disc, 100 g/ha: 100%

## Cc1cnc(-c2ncc(C(=O)N(C)CC3CC3)s2)c(C(C)NC(=O)c2cc(C(F)(F)F)cc(C(F)(F)F)c2)n1 (racemic) [Example I-73, (rac)-2-(3-{1-[3,5-Bis(trifluoromethyl)benzamido]ethyl}-5-methylpyrazin-2-yl)-N-(cyclopropylmethyl)-N-methyl-1,3-thiazole-5-carboxamide]
[3]
  mortality at 100 g/ha: 100%

## CC(NC(=O)c1cc(C(F)(F)F)cc(C(F)(F)F)c1)c1nccnc1-n1cc(C(=O)N2CCCC2)cn1 (racemic) [Example I-91, N-[(rac)-1-{3-[4-(Pyrrolidine-1-carbonyl)-1H-pyrazol-1-yl]pyrazin-2-yl}ethyl]-3,5-bis(trifluoromethyl)benzamide]
[1]
  pest or weed control at 1 µg/cm2, 100 g/ha: 100%
  pest or weed control at 5 µg/cm2, 500 g/ha: 100%

## CC(NC(=O)c1cc(C(F)(F)F)cc(C(F)(F)F)c1)c1nccnc1-n1cc(Cl)cn1 (racemic) [Example I-96, N-{(rac)-1-[3-(4-Chloro-1H-pyrazol-1-yl)pyrazin-2-yl]ethyl}-3,5-bis(trifluoromethyl)benzamide]
[2]
  pest or weed control at 6.4 µg/disc, 20 g/ha: 100%
  pest or weed control at 32 µg/disc, 100 g/ha: 100%

## CC(NC(=O)c1cc(Br)cc(OC(F)(F)F)c1)c1nccnc1-n1cc(Cl)cn1 (racemic) [Example I-97, (rac)-3-Bromo-N-{1-[3-(4-chloro-1H-pyrazol-1-yl)pyrazin-2-yl]ethyl}-5-(trifluoromethoxy)benzamide]
[2]
  pest or weed control at 32 µg/disc, 100 g/ha: 100%

## CC(NC(=O)c1cc(Cl)cc(S(=O)(=O)C2CC2)c1)c1nccnc1-n1cc(C#N)cn1 (racemic) [Example I-101, (rac)-3-Chloro-N-{1-[3-(4-cyano-1H-pyrazol-1-yl)pyrazin-2-yl]ethyl}-5-(cyclopropanesulfonyl)benzamide]
[3]
  mortality at 100 g/ha: 100%

## CC(NC(=O)c1cc(Cl)cc(OC(F)(F)F)c1)c1nccnc1-n1cc(C#N)cn1 (racemic) [Example I-104, (rac)-3-Chloro-N-{1-[3-(4-cyano-1H-pyrazol-1-yl)pyrazin-2-yl]ethyl}-5-(trifluoromethoxy)benzamide]
[2]
  pest or weed control at 6.4 µg/disc, 20 g/ha: 100%
  pest or weed control at 32 µg/disc, 100 g/ha: 100%

## CC(NC(=O)c1cc(Br)cc(I)c1)c1nccnc1-n1cc(C#N)cn1 (racemic) [Example I-112, (rac)-3-Bromo-N-{1-[3-(4-cyano-1H-pyrazol-1-yl)pyrazin-2-yl]ethyl}-5-iodobenzamide]
[2]
  pest or weed control at 32 µg/disc, 100 g/ha: 100%

## CC(NC(=O)c1cc(Cl)cc(C#N)c1)c1nccnc1-n1cc(C#N)cn1 (racemic) [Example I-121, (rac)-3-Chloro-5-cyano-N-{1-[3-(4-cyano-1H-pyrazol-1-yl)pyrazin-2-yl]ethyl}benzamide]
[2]
  pest or weed control at 32 µg/disc, 100 g/ha: 100%

## Cc1cnc(C(C)NC(=O)c2cc(C(F)(F)F)cc(C(F)(F)F)c2)c(-c2ncc(C(=O)N3C[C@@H](C)O[C@@H](C)C3)s2)n1 (mixture of isomers) [Example I-126, (rac)-N-[1-(3-{5-[cis-2,6-Dimethylmorpholine-4-carbonyl]-1,3-thiazol-2-yl}-5-methylpyrazin-2-yl)ethyl]-3,5-bis(trifluoromethyl)benzamide]
[1]
  pest or weed control at 1 µg/cm2, 100 g/ha: 100%
  pest or weed control at 5 µg/cm2, 500 g/ha: 100%
[2]
  pest or weed control at 32 µg/disc, 100 g/ha: 100%

## Cc1cnc(-c2ncc(C(=O)N3C[C@@H](C)O[C@@H](C)C3)s2)c(C(C)NC(=O)c2cc(C(F)(F)F)cc(C(F)(F)F)c2)n1 (mixture of isomers) [Example I-127, (rac)-N-[1-(3-{5-[cis-2,6-dimethylmorpholine-4-carbonyl]-1,3-thiazol-2-yl}-6-methylpyrazin-2-yl)ethyl]-3,5-bis(trifluoromethyl)benzamide]
[1]
  pest or weed control at 1 µg/cm2, 100 g/ha: 100%
  pest or weed control at 5 µg/cm2, 500 g/ha: 100%

## CC(NC(=O)c1cc(Cl)cc(C#N)c1)c1nccnc1-c1ccccn1 (stereo not shown) [Example I-18]
[2]
  pest or weed control at 32 µg/disc, 100 g/ha: 100%

## COc1ccc(-c2nccnc2C(C)NC(=O)c2cc(C(F)(F)F)cc(C(F)(F)F)c2)nc1 (stereo not shown) [Example I-26]
[1]
  pest or weed control at 5 µg/cm2, 500 g/ha: 90%
[2]
  pest or weed control at 6.4 µg/disc, 20 g/ha: 100%
  pest or weed control at 32 µg/disc, 100 g/ha: 100%

## COc1ccc(-c2nccnc2C(C)NC(=O)c2cc(Cl)cc(C(F)(F)F)c2)nc1 (stereo not shown) [Example I-29]
[1]
  pest or weed control at 5 µg/cm2, 500 g/ha: 90%
[2]
  pest or weed control at 6.4 µg/disc, 20 g/ha: 100%
  pest or weed control at 32 µg/disc, 100 g/ha: 100%
